Data published in article PMC6881481, “Integrative Multi-Kinase Approach for the Identification of Potent Antiplasmodial Hits” (Frontiers in Chemistry, 2019).
Like-named read-outs stand apart in the source and are kept apart here.

Key:
[1] = system: P. falciparum 3D7 (sensitive) strain, asexual blood stage; experiment: Plasmodium growth inhibition by SYBR Green I, 3D7 strain; type: cell-based
Protocol: (§1) Parasite cultures (3D7 and Dd2 strains) were maintained in O^+ human erythrocytes in RPMI 1640 medium supplemented with 0.05 mg/mL gentamycin, 38.4 mM HEPES, 0.2% sodium bicarbonate, and 10% O^+ human serum as described before (Trager and Jensen, [1976]). To achieve a synchronic culture in the ring stage, two consecutive treatments at 48 h intervals with a 5% solution of D-sorbitol were done (Lambros and Vanderberg, [1979]).
(§2) Synchronized ring-stage (> 90%) infected erythrocytes were dispensed in duplicate into 96-well plates (0.5% parasitemia, 1% hematocrit) and incubated in dose response format with test compounds for 72 h. Chloroquine was used as an antimalarial control and uninfected erythrocytes as negative control. Then, in vitro susceptibility of parasite to tested drug was measured by SYBR Green (Hartwig et al., [2013]). Following incubation, the plates were frozen and thawed, and 100 μL of the culture were transferred to a new black 96-well plate containing 100 μL of lysis buffer (20 mM Tris, 5 mM EDTA, 0.008% wt/vol saponin, 0.08% vol/vol Triton X-100, and 0.4 μL/mL of SYBR Green). After 1 h, the fluorescence was measured at 490 nm excitation and 540 nm emission (CLARIOstar, Labtech BMG). […] The EC50 was calculated by plotting the Log doses vs. Inhibition (expressed as a percentage relative to the control) in Prism 6 (GraphPad Software Inc.). Each test was performed at least three independent experiments.

[2] = system: P. falciparum Dd2 (multi-drug-resistant) strain, asexual blood stage; experiment: Plasmodium growth inhibition by SYBR Green I, Dd2 strain; type: cell-based; settings: read-out: EC50 Dd2
Protocol: as §1, §2

[3] = Cytotoxicity assay (MTT reduction), COS7 cells; type: cell-based, monkey; settings: monkey, COS7 cells (fibroblast-like, monkey kidney); COS7 cells, 72 h, mean ± SD
Protocol: (§3) The cytotoxicity was evaluated using two different lineages of mammalian cells: fibroblast-like cell lines derived from monkey kidney tissue (COS7 cells) and human hepatoma cell line (HEPG2). The cells were grown in 75 cm^2 flasks containing DMEM medium supplemented with 10% fetal bovine serum and 0.05 mg/mL gentamicin under a 5% CO2 atmosphere at 37°C. After harvest of cells, 100 μL aliquots were distributed in 96-well plates (1 x 10^4 cells per well) and incubated until adhesion (~12 h). The compounds at various concentrations (100−0.048 μM) were placed in the wells in duplicate and incubated for 72 h. The cell viability analysis were done by the MMT reduction method (3-[4,5-dimethyl-thiazol-2-yl]-2,5-diphenyltetrazolium […]), after the incubation period (Mosmann, [1983]). The optical density was determined at 570 nm (CLARIOstar, Labtech BMG) and the 50% cytotoxicity concentrations (CC50) were expressed as the percent viability relative to the control (untreated cells). The selectivity index of the compounds was determined through the ratio of the CC50 of both cytotoxicity results (COS7 and HEPG2 cells) and EC50 3D7, separately. Experiments were performed at least three times.

[4] = system: COS7 cells; experiment: Cytotoxicity assay (MTT reduction), COS7 cells; type: cell-based, monkey; settings: for SI* (selectivity index between CC50 COS7 and EC50 3D7 strain): CC50 COS7 / EC50 3D7; for selectivity indices: mammalian cells vs 3D7 (abstract)
Protocol: as §3

[5] = system: P. berghei Ookluc line ookinete formation; experiment: Inhibition of P. berghei sexual stage progression (ookinete conversion, nLuc); type: cell-based; settings: Plasmodium berghei, 24 h at 21°C, mean ± SD
Protocol: Balb/c mice were infected intraperitoneally with the P. berghei Ookluc line (Calit et al., [2018]). Four to five days after infection, the infected blood was collected by cardiac puncture and 4 μL were seeded to a volume of 80 μL of ookinete medium (Blagborough et al., [2013]), at 21°C, containing 10 μM of compounds or DMSO vehicle control. After 24h incubation at 21°C, the nLuc substrate (Nano-Glo, Promega) was added to each well 1:1 (v:v) and incubated for 5 min at 37°C. The luciferase activity was measured using a plate luminometer SpectraMax i3; Molecular Devices and the % of conversion inhibition were calculated relative to the luciferase activity in the control assays. This assay was approved by the Ethics Committee (protocol number 132/2014-CEUA) of the Institute of Biomedical Sciences—University of São Paulo.

[6] = Cytotoxicity assay (MTT reduction), HEPG2 cells; type: cell-based, human; settings: human, HEPG2 cells (human hepatoma); HEPG2 cells, 72 h, mean ± SD
Protocol: as §3

[7] = system: HEPG2 cells; experiment: Cytotoxicity assay (MTT reduction), HEPG2 cells; type: cell-based, human; settings: CC50 HEPG2 / EC50 3D7
Protocol: as §3

[8] = system: P. falciparum CDPK1; parameters: method as in ref Crowther et al., 2016; National Center for Biotechnology Information, 2016a; settings: query of shape-based model, ref Crowther et al., 2016, National Center for Biotechnology Information, 2016a; cited from earlier work
[9] = system: P. falciparum CDPK4; parameters: method as in ref Crowther et al., 2016; National Center for Biotechnology Information, 2016b; settings: query of shape-based model, ref Crowther et al., 2016, National Center for Biotechnology Information, 2016b; cited from earlier work
[10] = system: P. falciparum PK6; parameters: method as in ref Crowther et al., 2016; National Center for Biotechnology Information, 2016c; settings: query of shape-based model, ref Crowther et al., 2016, National Center for Biotechnology Information, 2016c; cited from earlier work
[11] = 3D7 strain, 72 h, mean ± SD of three independent assays, read-out: EC50 3D7
[12] = Dd2 strain, 72 h, mean ± SD of three independent assays
[13] = 3D7, both sensitive and multi-drug resistant P. falciparum strains (abstract), read-out: EC50 (antiplasmodial activity)
[14] = 3D7 / DD2, both 3D7 and Dd2 strains, summary bound, read-out: EC50 (3D7 and Dd2 strains)

| Compound | EC50 [1, 11] | EC50 [2, 12] | CC50 at 72 h [3] | SI* (selectivity index between CC50 COS7 and EC50 3D7 strain) [4] | inhibition at 10 µM [5] | CC50 at 72 h [6] | SI** (selectivity index between CC50 HEPG2 and EC50 3D7 strain) [7] | further results |
| --- | --- | --- | --- | --- | --- | --- | --- | --- |
| COc1ccc(Nc2nc(C)c(N)c(Nc3ccc(OC)cc3)n2)cc1 [LabMol-170] | 1140 ± 200 nM | 2020 ± 360 nM | 7590 ± 4090 nM | 6.66 | 11.2 ± 19.5% | 5430 ± 2390 nM | 4.76 |  |
| O=C(NCCCN1CCCCC1)c1ccc(Nc2nccc(Nc3ccc(Oc4ccccc4)cc3)n2)cc1 [SID 307076176] |  |  |  |  |  |  |  | IC50 [8]: 94 nM |
| CCn1c(-c2nonc2N)nc2c(-c3cccc(NC(=O)Nc4cccc(C(F)(F)F)c4)c3)ncc(OCCCN)c21 [SID 307073749] |  |  |  |  |  |  |  | IC50 [8]: 15 nM |
| CC(C)(CN)c1nc(-c2ccc(Cl)c(O)c2)c(-c2ccnc(N)n2)[nH]1 [SID 307078537] |  |  |  |  |  |  |  | IC50 [8]: 7 nM |
| Cc1ccc(-c2nc(NCc3cnc(C)cn3)ncc2-c2ccc(N)nc2)cc1 [LabMol-177] | > 5000 nM |  |  |  | 8.76 ± 15.2% |  |  |  |
| CN1CCN(CCC2CCCCN2Cc2ccnc3ccccc23)CC1 (stereo not drawn) [LabMol-173] | > 5000 nM |  |  |  | 0% |  |  |  |
| COc1ccc(Nc2nc(Nc3ccc([N+](=O)[O-])cc3)nc(OC)n2)cc1 [LabMol-169] | 8770 ± 2200 nM | 3400 ± 1680 nM | 44600 ± 3730 nM | 5.09 | 8.58 ± 7.62% | 20000 ± 2260 nM | 2.27 |  |
| O=C(NCCO)c1cccc(Nc2nc(-c3ccccc3)c3cc(Cl)ccc3n2)c1 [LabMol-175] | > 5000 nM |  |  |  | 12.9 ± 22.3% |  |  |  |
| Cc1cc(NCCCN2CCN(C)CC2)nc(-c2ccccc2O)n1 [LabMol-174] | > 5000 nM |  |  |  | 21.4 ± 36.7% |  |  |  |
| CC(O)c1cccc(Nc2nc(NCc3ccco3)c3ccccc3n2)c1 (stereo not drawn) [LabMol-172] | 430 ± 80 nM | 480 ± 170 nM | 12100 ± 1440 nM | 28.16 | 8.59 ± 13% | 10200 ± 5530 nM | 23.74 | EC50 [1, 13]: ≤ 700 nM; EC50 [1, 14]: < 1000 nM; selectivity indices [4]: > 15 folds |
| CCN(CC)CCCC(C)Nc1ccnc2cc(Cl)ccc12 (stereo not drawn) [Chloroquine, reference compound] |  |  |  |  |  |  |  | EC50 ([1]; 3D7, 72 h, read-out: EC50 3D7): 20 ± 10 nM; EC50 ([2]; DD2, 72 h): 150 ± 40 nM |
| CC(Nc1nc(N2CCNCC2)nc2ccccc12)c1ccccc1 (stereo not drawn) [LabMol-176] | 1150 ± 260 nM | 1710 ± 400 nM | 34900 ± 4060 nM | 30.33 | 20.5 ± 19.4% | 5630 ± 1510 nM | 4.90 |  |
| CC(O)c1cccc(Nc2nc(NCCO)c3ccccc3n2)c1 (stereo not drawn) [LabMol-171] | 350 ± 80 nM | 700 ± 410 nM | 48400 ± 14000 nM | 138.26 | 70 ± 22.2% | 19300 ± 3690 nM | 55.17 | EC50 [1, 13]: ≤ 700 nM; EC50 [1, 14]: < 1000 nM; selectivity indices [4]: > 15 folds |
| Cc1[nH]c(/C=C2\C(=O)Nc3ccc(S(=O)(=O)Cc4c(Cl)cccc4Cl)cc32)c(C)c1C(=O)N1CCC[C@@H]1CN1CCCC1 [SID 307068815] |  |  |  |  |  |  |  | IC50 [9]: 21 nM |
| CNC(=O)c1ccccc1Nc1nc(Nc2ccc(N3CCOCC3)cc2)ncc1Cl [SID 307071719] |  |  |  |  |  |  |  | IC50 [10]: 42 nM |
| c1ccc2c(NCC3CCCO3)nc(Nc3ccc4c(c3)OCO4)nc2c1 (stereo not drawn) [LabMol-181] | 390 ± 60 nM | 400 ± 100 nM | 18300 ± 1920 nM | 46.90 | 51.8 ± 23.2% | 6130 ± 2050 nM | 15.72 | EC50 [1, 13]: ≤ 700 nM; EC50 [1, 14]: < 1000 nM; selectivity indices [4]: > 15 folds |
